Assay results as given in patent US10472394B2, “Cyclosporine analogue mixtures and their use as immunomodulating agents” (Aurinia Pharmaceuticals Inc., priority 2001, dated 2019).
≈ marks a conversion by molar mass, not a printed value.

Experiments:
[1] = tested on: calcineurin phosphatase activity; test: calcineurin (CN) inhibition assay; assay type: biochemical; details: FIG. 11; ISATX247 isomer mixture
Excerpt: The use of cyclosporine derivatives, a class of cyclic polypeptides produced by the fungus Tolypocladium inflatum Gams, is increasing in immunosuppressive therapy due to their preferential effects on T-cell mediated reactions. […] This action is primarily mediated through cyclosporine A-induced inhibition of calcineurin, a phosphatase enzyme found in the cytoplasm of cells (Schreiber and Crabtree, 1992).

[2] = tested on: Transplanted Rat Hearts; test: rat heart transplant model (heterotopic, Wistar Furth to Lewis); assay type: in vivo
Excerpt: If graft dysfunction was noted during the 30-day post-transplantation period, the animal was sacrificed. If the animal survived longer than 30 days post-transplantation, the test and control articles were discontinued and the animal was allowed to continue until graft dysfunction or up to 100 days post-transplantation.

[3] = tested on: Mouse Islet Allografts; test: islet cell allotransplantation in diabetic mice
Excerpt: Blood glucose was monitored daily until the time of graft failure, as defined by a glucose level greater than 17 mmol/L on two consecutive days.

[4] = tested on: collagen-induced arthritis; test: collagen-induced arthritis model; assay type: in vivo, mouse
Description: Male DBA/1 Lac J mice, kept under virus antibody free conditions, were immunized subcutaneously at 8 to 10 weeks of age with 100 microgram of chick type II collagen, emulsified in Freund's complete adjuvant. […] Animals assigned to the treatment protocol (12/group) were dosed starting on the day of disease onset (˜Day 28) until sacrifice on Day 38.
Evaluated parameters included mortality, serum creatinine, histology, and outcome assessments, such as clinical scoring (visual), hind paw swelling, histological scoring, erosion scoring, and immunohistochemistry.
Erosion scoring was done in a blinded manner by examining sagittal sections of the proximal interphalangeal (PIP) joint of the middle digit for the presence or absence of erosions (defined as demarcated defects in cartilage or bone filled with inflammatory tissue). This approach allowed for comparisons of the same joint.

[5] = tested on: antigen-induced arthritis; test: antigen-induced arthritis model; assay type: in vivo, rabbit
Description: New Zealand White rabbits, maintained under specific pathogen free conditions, were immunized with 10 mg of ovalbumin in saline emulsified with Freund's complete adjuvant that was given intramuscularly and subcutaneously into several sites in the nape of the neck. Fourteen days later, all animals started receiving 2 daily intra-articular injections of 5 mg ovalbumin and 65 ng of human recombinant transforming growth factor 2 in saline.
Animals assigned to the treatment protocol (8/group) were dosed starting on the day of disease onset (˜Day 28) until sacrifice on Day 42.
Evaluated parameters included mortality, body weight, serum creatinine, histology, and outcome assessments such as knee joint swelling, synovial fluid counts, gross postmortem analysis, and histology.

[6] = pharmacokinetics in the rabbit model (i.v.); assay type: in vivo; details: for Area under the curve, mean ± SD / Cmax, mean ± SD: 10 mg/kg/day i.v.
Description: (§3) On Days 1 and 7, blood samples were collected prior to drug administration and at 0.5, 1, 2, 4, 8, 12, 18, and 24 hours post-dose to generate a pharmacokinetic profile. Other evaluated parameters included clinical observations, body weight, food consumption, hematology, clinical chemistry, gross pathology, and histopathological examination of selected tissues/organs.
Blood samples were analyzed via high performance liquid chromatography coupled with mass spectrometry (LCMS).

[7] = tested on: lymphocyte proliferation; test: whole blood assay: lymphocyte proliferation; assay type: cell-based, cynomolgous monkeys; details: mitogen stimulated
Description: (§1) Lymphocyte proliferation was assessed by tritium-labeled thymidine incorporation and by flow-cytometric analysis of expression of proliferating cell nuclear antigen (PCNA) on cells in SG2M phase. Flow cytometry was also used to assess production of intracellular cytokines by T cells and expression of T lymphocyte activation antigens.

[8] = tested on: production of intracellular cytokines by T cells; test: whole blood assay: intracellular cytokine production by T cells; assay type: cell-based, cynomolgous monkeys; details: mitogen stimulated
Description: as §1

[9] = tested on: T lymphocyte activation antigens; test: whole blood assay: expression of T lymphocyte activation antigens; assay type: cell-based, cynomolgous monkeys; details: mitogen stimulated
Description: as §1

[10] = repeated-dose oral toxicity studies; assay type: in vivo, rats, dogs, and primates
[11] = tested on: bacterial reverse mutation; test: in vitro bacterial reverse mutation assay; assay type: cell-based
Excerpt: (§2) No carcinogenicity studies have been completed to date.

[12] = tested on: chromosome aberration; test: in vitro chromosome aberration assay; assay type: cell-based
Excerpt: as §2

[13] = tested on: micronucleus; test: in vivo rat micronucleus assay
Excerpt: as §2

[14] = reproductive toxicity studies; assay type: in vivo, pregnant rats and rabbits
Excerpt: as §2

[15] = 30-day toxicokinetic/toxicity study in the rabbit model
Description: as §3

SMILES: C=C/C=C/C[C@@H](C)[C@@H](O)[C@H]1C(=O)N[C@@H](CC)C(=O)N(C)CC(=O)N(C)[C@@H](CC(C)C)C(=O)N[C@@H](C(C)C)C(=O)N(C)[C@@H](CC(C)C)C(=O)N[C@@H](C)C(=O)N[C@H](C)C(=O)N(C)[C@@H](CC(C)C)C(=O)N(C)[C@@H](CC(C)C)C(=O)N(C)[C@@H](C(C)C)C(=O)N1C [ISATX247]
- potency of inhibition of calcineurin phosphatase activity compared to cyclosporine A (as determined by IC50) [1]: ≤ 3 fold
- increase of survival time over Cyclosporine A ([2]; 1.75 mg/kg/day): approximately 3 fold
- graft function after discontinuation of dosing ([2]; 100 days post-transplant (70 days post discontinuation of dosing)): still had functioning grafts at 100 days post-transplant
- Mean Survival ([3]; 1.75 mg/kg/day i.p.): 18.7
- Mean Survival ([3]; 10 mg/kg/day i.p.): 19.2
- Mean Survival ([3]; 25 mg/kg/day i.p.): 46.4
- toxicity compared with cyclosporine A as the dose level increased ([3]; especially apparent at 25 mg/kg/day): less toxic than cyclosporine A
- negative erosion scores compared to vehicle group ([4]; 250 μg/mouse i.p.): higher negative erosion scores
- development of joint erosions (PIP joints) ([4]; 500 μg/mouse): significantly prevent
- negative erosion scores compared to vehicle group ([4]; 500 μg/mouse i.p.): significantly higher
- synovial fluid counts ([5]; prevention protocol): significant reductions
- synovial histopathological scores compared to vehicle control ([5]; prevention protocol, after 28 days of therapy, s.c.): significant decrease
- macroscopic arthritis score ([5]; rabbit, in vivo): significant reduction
- potency compared with cyclosporine A in treatment and prevention of arthritis ([5]; rabbit, in vivo): equivalent or potentially more potent than cyclosporine A
- synovial histopathological scores of animals with established arthritis compared to vehicle controls ([5]; treatment protocol, 14 days of treatment): Significant amelioration
- pharmacokinetic parameters in female rabbits compared with male rabbits ([6]; 10 mg/kg/day, exception: maximum concentration on Day 7): not significantly different
- pharmacokinetic parameters compared with cyclosporine A ([6]; male rabbits, 10 mg/kg/day): no statistically significantly differences
- Area under the curve, mean ± SD ([6]; male rabbits, Day 1): 5659 ± 1309 ng·h/mL
- Cmax, mean ± SD ([6]; male rabbits, Day 1): 1915 ± 149 ng/mL
- Area under the curve, mean ± SD ([6]; male rabbits, Day 7): 5697 ± 1373 ng·h/mL
- Cmax, mean ± SD ([6]; male rabbits, Day 7): 1959 ± 470 ng/mL
- EC50, 3H-thymidine uptake [7]: 0.16054 µg/mL (≈ 0.132 µM)
- EC50, PCNA expression ([7]; flow cytometry): 0.19772 µg/mL (≈ 0.163 µM)
- EC50, IFN-production [8]: 0.10267 µg/mL (≈ 0.0845 µM)
- EC50, IL-2 production [8]: 0.10335 µg/mL (≈ 0.0851 µM)
- EC50, TNF-production [8]: 0.09058 µg/mL (≈ 0.0746 µM)
- EC50, CD 11a expression [9]: 0.2044 µg/mL (≈ 0.168 µM)
- EC50, CD 25 expression [9]: 0.121 µg/mL (≈ 0.0996 µM)
- EC50, CD 71 expression [9]: 0.14984 µg/mL (≈ 0.123 µM)
- EC50, CD 95 expression [9]: 0.12998 µg/mL (≈ 0.107 µM)
- EC50, CD 154 expression [9]: 0.16087 µg/mL (≈ 0.132 µM)
- only toxicological effect noted in all species [10]: diarrhea/loose feces
- tolerability ([10]; rats, dogs, primates): well-tolerated
- mutagenic activity [11]: does not exhibit mutagenic activity
- mutagenic activity [12]: does not exhibit mutagenic activity
- mutagenic activity [13]: does not exhibit mutagenic activity
- embryotoxicity ([14]; at doses that resulted in maternal toxicity): corresponding embryotoxicity was observed
- treatment-related malformations or alterations ([14]; pregnant rats and rabbits): no treatment-related malformations or alterations
- examination of organs ([15]; 5 mg/kg): no significant abnormalities
- examination of organs ([15]; 10 mg/kg): no significant abnormalities
- increase in serum creatinine levels ([15]; 15 mg/kg/day): did not result in any significant increase
- examination of organs ([15]; 3 female rabbits that completed the study, 15 mg/kg): No changes
- Percent Change in Serum Creatine Levels Over Baseline ([15]; male rabbits, 10 mg/kg, Day 15): +1%
- Percent Change in Serum Creatine Levels Over Baseline ([15]; male rabbits, 10 mg/kg, Day 30): +10%
- examination of organs: spermatogenesis ([15]; male rabbits, 15 mg/kg): a decrease in spermatogenesis
- Percent Change in Serum Creatine Levels Over Baseline ([15]; male rabbits, 15 mg/kg, Day 15): −19%
- Percent Change in Serum Creatine Levels Over Baseline ([15]; male rabbits, 15 mg/kg, Day 30): −11%
- hematological parameters ([15]; rabbit, in vivo): No significant changes
